Experimental data from ChEMBL document CHEMBL3774331, “Inhibition of tau aggregation using a naturally-occurring cyclic peptide scaffold” (Eur J Med Chem, 2016).
The source made the active and inactive calls. The rule behind the calls is not given here. Where a SMILES comes first, the peptide text is derived from it. Bridges are numbered along the chain shown (N, C = ends).

How the values were obtained:
[1] = Inhibition of TAU derived synthetic hexapeptide AcPHF6 fibril formation at compound:AcPHF6 ratio of 1:1 to 1:64 incubated for 60 mins by thioflavin S fluorescence assay
[2] = Binding affinity to thioflavin S at compound:AcPHF6 ratio of 1:1 incubated for 120 mins by fluorescence assay
[3] = Binding affinity to thioflavin S at compound:AcPHF6 ratio of 1:1 to 1:64 incubated for 120 mins by fluorescence assay
[4] = Inhibition of TAU derived synthetic hexapeptide AcPHF6 fibril formation incubated for 120 mins by thioflavin S fluorescence assay

Compound | inhibition [1] | Activity [2] | Activity [3] | inhibition [4]
CC[C@H](C)[C@@H]1NC(=O)[C@H](CCC(N)=O)NC(=O)[C@H](C(C)C)NC(=O)CNC(=O)[C@H](CC(=O)O)NC(=O)[C@@H]2CCCN2C(=O)[C@H](C(C)C)NC(=O)[C@H](C)NC(=O)[C@H](Cc2ccccc2)NC(=O)[C@@H]2CSSC[C@H](NC1=O)C(=O)N[C@@H](Cc1ccc(O)cc1)C(=O)N[C@@H](CCCCN)C(=O)N[C@@H](CO)C(=O)N[C@@H]([C@@H](C)CC)C(=O)N1CCC[C@H]1C(=O)N1CCC[C@H]1C(=O)N[C@@H]([C@@H](C)CC)C(=O)N2 (cyclo(AVPDGVQICYKSIPPICF); disulfide 9-17) | Active | Active |  | 
CC[C@H](C)[C@@H]1NC(=O)[C@@H]2CCCN2C(=O)[C@@H]2CCCN2C(=O)[C@H]([C@@H](C)CC)NC(=O)[C@H](CO)NC(=O)[C@H](CCCCN)NC(=O)[C@H]([C@@H](C)O)NC(=O)[C@@H]2CSSC[C@H](NC1=O)C(=O)N[C@@H](Cc1ccccc1)C(=O)N1CCC[C@H]1C(=O)N[C@@H](CC(=O)O)C(=O)NCC(=O)N[C@@H](CCCNC(=N)N)C(=O)N2 | Active |  | inactive | Dose-dependent effect
